Assay results from patent US5958496A, “Aspartyl dipeptide amide derivatives and sweeteners” (Ajinomoto Co., Inc., priority 1996, dated 1999).
Peptide text beside a SMILES is read from it.

Columns and labels:
[1] = Sensory evaluation of degree of sweetness relative to sugar; conditions: for degrees of sweetness: relative to a degree of sweetness of a 4% aqueous sucrose solution; for degree of sweetness: sensory evaluation
Description: ^3 Degree of sweetness relative to a degree of sweetness of a 4%

[2] = Stability (half-life) in phosphate buffer of pH 3 at 70° C.; type: physicochemical; conditions: acidic aqueous solution
Protocol: The peptides of the present invention may be 2 to 15 times as stable as aspartame when measured in a phosphate buffer of pH 3 at 70° C. This range in stability as compared to aspartame includes all specific values and subranges therebetween. The half-lives (in a phosphate buffer of pH 3 at 70° C.) of α-L-aspartyl-D-valine (R)-α-methylthiomethylbenzylamide, α-L-aspartyl-D-isoleucine (R)-α-methylthiomethylbenzylamide and α-L-aspartyl-D-valine (S)-α-methoxycarbonylmethylbenzylamide in an acidic aqueous solution were approximately 220 hours, 650 hours and 139 hours respectively.

Row | half-life [2] | SMILES | degrees of sweetness [1] | Degree of sweetness (relative to sugar) [1] | degree of sweetness [1]
1 |  | COC(=O)CC(NC(=O)[C@H](NC(=O)[C@@H](N)CC(=O)O)C(C)C)C1CCCCC1 (mixture of isomers) [Example 6, α-L-aspartyl-D-valine (RS)-α-cyclohexyl-β-methoxycarbonylethylamide] | 400 | 400 times | 
2 |  | CC[C@@H](NC(=O)[C@@H](N)CC(=O)O)C(=O)NC(CC(=O)OC)c1ccccc1 (mixture of isomers) [Example 10, α-L-aspartyl-D-α-aminobutyric acid (RS)-α-methoxycarbonylmethylbenzylamide] | 800 | 800 times | 
3 |  | CC[C@@H](NC(=O)[C@@H](N)CC(=O)O)C(=O)NC(CC(=O)OC)c1ccc(OC)cc1 (mixture of isomers) [Example 11] | 200 | 200 times | 
4 |  | CC[C@@H](NC(=O)[C@@H](N)CC(=O)O)C(=O)NC(CC(=O)OC)c1cccc2c1OCO2 (mixture of isomers) [Example 12] | 250 | 250 times | 
5 |  | CC[C@@H](NC(=O)[C@@H](N)CC(=O)O)C(=O)NC(CC(=O)OC)c1ccc(O)cc1 (mixture of isomers) [Example 13] | 200 | 200 times | 
6 |  | CC[C@@H](NC(=O)[C@@H](N)CC(=O)O)C(=O)NC(CC(=O)OC)c1ccc(C)cc1 (mixture of isomers) [Example 14] | 200 | 200 times | 
7 |  | CC[C@@H](NC(=O)[C@@H](N)CC(=O)O)C(=O)NC(CC(=O)OC)C1CCCCC1 (mixture of isomers) [Example 15, α-L-aspartyl-D-α-aminobutyric acid (RS)-α-cyclohexyl-β-methoxycarbonylethylamide] | 700 | 700 times | 
8 |  | CC[C@@H](NC(=O)[C@H](CC(=O)O)NCCC(C)(C)C)C(=O)NC(CC(=O)OC)c1ccccc1 (mixture of isomers) [Example 18, N-3,3-dimethylbutyl-α-L-aspartyl-D-α-aminobutyric acid (RS)-α-methoxycarbonylmethylbenzylamide] | 1250 | 1,250 times | 
9 |  | COC(=O)CC(NC(=O)[C@H](NC(=O)[C@H](CC(=O)O)NCCC(C)(C)C)C(C)C)c1ccccc1 (mixture of isomers) [Example 19, N-3,3-dimethylbutyl-α-L-aspartyl-D-valine (RS)-α-methoxycarbonylmethylbenzylamide] | 1250 | 1,250 times | 
10 |  | CC[C@@H](NC(=O)[C@H](CC(=O)O)NCCC(C)(C)C)C(=O)NC(CC(=O)OC)C1CCCCC1 (mixture of isomers) [Example 20, N-3,3-dimethylbutyl-α-L-aspartyl-D-α-aminobutyric acid (RS)-α-cyclohexyl-β-methoxycarbonylethylamide] | 1250 | 1,250 times | 
11 | approximately 220 hours | CSC[C@H](NC(=O)[C@H](NC(=O)[C@@H](N)CC(=O)O)C(C)C)c1ccccc1 [Example 1, α-L-aspartyl-D-valine (R)-α-methylthiomethylbenzylamide] | 3000 | 3,000 times | approximately 3,000 times that of sugar
12 |  | CSC[C@H](NC(=O)[C@@H](C)NC(=O)[C@@H](N)CC(=O)O)c1ccccc1 [Example 2, α-L-aspartyl-D-alanine (R)-α-methylthiomethylbenzylamide] | 1000 | 1,000 times | 
13 |  | CC[C@@H](NC(=O)[C@@H](N)CC(=O)O)C(=O)N[C@@H](CSC)c1ccccc1 [Example 3, α-L-aspartyl-D-α-aminobutyric acid (R)-α-methylthiomethylbenzylamide] | 4000 | 4,000 times | approximately 4,000 times that of sugar
14 | ~27.1 days | CC[C@@H](C)[C@@H](NC(=O)[C@@H](N)CC(=O)O)C(=O)N[C@@H](CSC)c1ccccc1 [Example 4, α-L-aspartyl-D-isoleucine (R)-α-methylthiomethylbenzylamide] | 5000 | 5,000 times | approximately 5,000 times that of sugar
15 | ~5.79 days | COC(=O)C[C@H](NC(=O)[C@H](NC(=O)[C@@H](N)CC(=O)O)C(C)C)c1ccccc1 [Example 5, α-L-aspartyl-D-valine (S)-α-methoxycarbonylmethylbenzylamide] | 1500 | 1,500 times | approximately 1,500 times that of sugar
16 |  | CC[C@@H](NC(=O)[C@@H](N)CC(=O)O)C(=O)NC1(c2ccccc2)CCCC1 [Example 7, α-L-aspartyl-D-α-aminobutyric acid α-phenylcyclopentylamide] | 750 | 750 times | 
17 |  | CC(C)[C@@H](NC(=O)[C@@H](N)CC(=O)O)C(=O)NC1(c2ccccc2)CCCC1 [Example 8, α-L-aspartyl-D-valine α-phenylcyclopentylamide] | 1200 | 1,200 times | approximately 1,200 times that of sugar
18 |  | CC[C@@H](C)[C@@H](NC(=O)[C@@H](N)CC(=O)O)C(=O)NC(C)(C)c1ccccc1 [Example 9, α-L-aspartyl-D-isoleucine α,α-dimethylbenzylamide] | 250 | 250 times | 
19 |  | CC(C)[C@@H](NC(=O)[C@@H](N)CC(=O)O)C(=O)NC(C)(C)c1ccccc1 [Example 16, α-L-aspartyl-D-valine α,α-dimethylbenzylamide] | 500 | 500 times | 
20 |  | CSC[C@H](NC(=O)[C@H](NC(=O)[C@H](CC(=O)O)NCCC(C)(C)C)C(C)C)c1ccccc1 [Example 17, N-3,3-dimethylbutyl-α-L-aspartyl-D-valine (R)-α-methylthiomethylbenzylamide] | 5000 | 5,000 times | approximately 5,000 times that of sugar
21 | approximately 23 hours | COC(=O)[C@H](Cc1ccccc1)NC(=O)[C@@H](N)CC(=O)O [aspartame, reference compound] (H-Asp-Phe-OMe) |  |  | 
